Data reported in patent US8124793B2, “Derivatives of ethylene methanedisulfonate as cancer chemotherapeutic agents” (priority 2007, dated 2012).

Experiments:
human cancer cells = experiment: NCI screen summary over the cancers tested (negative growth of human cancer cells); assay type: cell-based; conditions: cancers with negative growth / cancers tested
Experimental: (§1) In the NCI screening process, each compound was tested and described by a minimum of 60 data points. The test data include, but are not limited to the type of cancer, the molar concentration used in the screen, and the percent growth of the cancer. In some cases, NMR and elemental analysis were used for structural assignment.
The derivatives in the tables are grouped using the same category as in the tables 1-6.

NCI-H226 = experiment: NCI screen, growth of human tumor cells: Non-Small Cell Lung NCI-H226; assay type: cell-based
Experimental: as §1

EKVX = experiment: NCI screen, growth of human tumor cells: Non-Small Cell Lung EKVX; assay type: cell-based; conditions: EKVX
Experimental: as §1

HOP-18 = experiment: NCI screen, growth of human tumor cells: Non-Small Cell Lung HOP-18; assay type: cell-based
Experimental: as §1

UACC-62 = experiment: NCI screen, growth of human tumor cells: Melanoma UACC-62; assay type: cell-based; conditions: UACC-62 (Melanoma), 10^−4 molar
How it was run: (§2)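 Growth of human tumor cells, expressed as percent, was determined in the NCI screen. Test data list the cancer type and the molar concentration applied.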

SF-539 = experiment: NCI screen, growth of human tumor cells: CNS Cancer SF-539; assay type: cell-based
How it was run: as §2

RPMI-8226 = experiment: NCI screen, growth of human tumor cells: Leukemia RPMI-8226; assay type: cell-based; conditions: RPMI-8226 (Leukemia), 10^−4 molar
Experimental: as §1

HOP-62 = experiment: NCI screen, growth of human tumor cells: Non-Small Cell Lung HOP-62; assay type: cell-based; conditions: HOP-62 (Non-Small Cell Lung), 10^−4 molar
How it was run: as §2

SK-MEL-28 = experiment: NCI screen, growth of human tumor cells: Melanoma SK-MEL-28; assay type: cell-based; conditions: SK-MEL-28 (Melanoma), 10^−4 molar
Experimental: as §1

HCT-15 = experiment: NCI screen, growth of human tumor cells: Colon Cancer HCT-15; assay type: cell-based; conditions: HCT-15 (Colon Cancer), 10^−4 molar
How it was run: as §2

OVCAR-5 = experiment: NCI screen, growth of human tumor cells: Ovarian Cancer OVCAR-5; assay type: cell-based
Experimental: as §1

COLO205 = experiment: NCI screen, growth of human tumor cells: Colon Cancer COLO205; assay type: cell-based; conditions: COLO205 (Colon Cancer), 10^−4 molar
Experimental: as §1

SK-MEL-2 = experiment: NCI screen, growth of human tumor cells: Melanoma SK-MEL-2; assay type: cell-based
Experimental: as §1

HCT-116 = experiment: NCI screen, growth of human tumor cells: Colon Cancer HCT-116; assay type: cell-based; conditions: HCT-116 (Colon Cancer), 10^−4 molar
Experimental: as §1

SF-295 = experiment: NCI screen, growth of human tumor cells: CNS Cancer SF-295; assay type: cell-based; conditions: SF-295 (CNS Cancer), 10^−4 molar
Experimental: as §1

SNB-75 = experiment: NCI screen, growth of human tumor cells: CNS Cancer SNB-75; assay type: cell-based; conditions: SNB-75 (CNS Cancer), 10^−4 molar
Experimental: as §1

MDA-MB-435 = experiment: NCI screen, growth of human tumor cells: Breast Cancer MDA-MB-435; assay type: cell-based; conditions: MDA-MB-435, 10^−4 molar
Experimental: as §1

OVCAR-4 = experiment: NCI screen, growth of human tumor cells: Ovarian Cancer OVCAR-4; assay type: cell-based; conditions: OVCAR-4 (Ovarian Cancer), 10^−4 molar
Experimental: as §1

NCI-H23 = experiment: NCI screen, growth of human tumor cells: Non-Small Cell Lung NCI-H23; assay type: cell-based; conditions: NCI-H23, 10^−4 molar
Experimental: as §1

AS49/ATCC = experiment: NCI screen, growth of human tumor cells: Non-Small Cell Lung AS49/ATCC; assay type: cell-based; conditions: AS49/ATCC (Non-Small Cell Lung), 10^−4 molar
Experimental: as §1

ACHN = experiment: NCI screen, growth of human tumor cells: Renal Cancer ACHN; assay type: cell-based; conditions: ACHN, 10^−4 molar
How it was run: as §2

DU-145 = experiment: NCI screen, growth of human tumor cells: Prostate Cancer DU-145; assay type: cell-based
Experimental: as §1

UO-31 = experiment: NCI screen, growth of human tumor cells: Renal Cancer UO-31; assay type: cell-based; conditions: UO-31 (Renal Cancer), 10^−4 molar
Experimental: as §1

MCF7/ADR-RES = experiment: NCI screen, growth of human tumor cells: Breast Cancer MCF7/ADR-RES; assay type: cell-based; conditions: MCF7/ADR-RES (Breast Cancer), 10^−4 molar
Experimental: as §1

M14 = experiment: NCI screen, growth of human tumor cells: Melanoma M14; assay type: cell-based; conditions: M14 (Melanoma), 10^−4 molar
Experimental: as §1

SK-MEL-5 = experiment: NCI screen, growth of human tumor cells: Melanoma SK-MEL-5; assay type: cell-based
How it was run: as §2

NCI-H460 = experiment: NCI screen, growth of human tumor cells: Non-Small Cell Lung NCI-H460; assay type: cell-based; conditions: NCI-H460 (Non-Small Cell Lung), 10^−4 molar
How it was run: as §2

SF-268 = experiment: NCI screen, growth of human tumor cells: CNS Cancer SF-268; assay type: cell-based; conditions: SF-268 (CNS Cancer), 10^−4 molar
Experimental: as §1

RXF-393 = experiment: NCI screen, growth of human tumor cells: Renal Cancer RXF-393; assay type: cell-based; conditions: RXF-393 (Renal Cancer), 10^−4 molar
Experimental: as §1

OVCAR-3 = experiment: NCI screen, growth of human tumor cells: Ovarian Cancer OVCAR-3; assay type: cell-based; conditions: OVCAR-3 (Ovarian Cancer), 10^−4 molar
How it was run: as §2

U-251 = experiment: NCI screen, growth of human tumor cells: CNS Cancer U-251; assay type: cell-based; conditions: U-251 (CNS Cancer), 10^−4 molar
Experimental: as §1

KM12 = experiment: NCI screen, growth of human tumor cells: Colon Cancer KM12; assay type: cell-based
Experimental: as §1

K562 = experiment: NCI screen, growth of human tumor cells: Leukemia K562; assay type: cell-based; conditions: K562 (Leukemia), 10^−4 molar
How it was run: as §2

SR = experiment: NCI screen, growth of human tumor cells: Leukemia SR; assay type: cell-based; conditions: SR (Leukemia), 10^−4 molar
How it was run: as §2

HL-60 (TB) = experiment: NCI screen, growth of human tumor cells: Leukemia HL-60 (TB); assay type: cell-based; conditions: HL-60 (TB) (Leukemia), 10^−4 molar
Experimental: as §1

SN12C = experiment: NCI screen, growth of human tumor cells: Renal Cancer SN12C; assay type: cell-based; conditions: SN12C
Experimental: as §1

BT-549 = experiment: NCI screen, growth of human tumor cells: Breast Cancer BT-549; assay type: cell-based; conditions: BT-549 (Breast Cancer), 10^−4 molar
Experimental: as §1

HS 578T = experiment: NCI screen, growth of human tumor cells: Breast Cancer HS 578T; assay type: cell-based; conditions: HS 578T (Breast Cancer), 10^−4 molar
Experimental: as §1

O=S1(=O)OCCOS(=O)(=O)C1Cl [MWC 91-6, ethylene chloromethanedisulfonate]
melting point: 85 to 88 °C

O=S1(=O)OCCOS(=O)(=O)C1(Br)Br [NSC 648304, ethylene dibromomethanedisulfonate]
Percentage of cancers showing negative growth cancers tested (human cancer cells; 10^−4 M conc.): 10^−4 M conc. = 1/3 = 33%
% Growth (NCI-H226; NCI-H226, 10^−4 molar): −1%
% Growth (NCI-H226; NCI-H226, 10^−5 molar): 49%
% Growth (NCI-H226; NCI-H226, 10^−6 molar): 47%
% Growth (NCI-H226; NCI-H226, 10^−7 molar): 54%
% Growth (NCI-H226; NCI-H226, 10^−8 molar): 62%
% Growth (EKVX; 10^−4 molar): 51%
% Growth (EKVX; 10^−5 molar): 57%
% Growth (EKVX; 10^−6 molar): 58%
% Growth (EKVX; 10^−7 molar): 62%
% Growth (EKVX; 10^−8 molar): 58%
% Growth (HOP-18; HOP-18, 10^−4 molar): 53%
% Growth (HOP-18; HOP-18, 10^−5 molar): 75%
% Growth (HOP-18; HOP-18, 10^−6 molar): 52%
% Growth (HOP-18; HOP-18, 10^−7 molar): 14%
% Growth (HOP-18; HOP-18, 10^−8 molar): 42%
melting point: 214 to 220 °C

O=S1(=O)OCCOS(=O)(=O)C1Br [NSC 648305, ethylene bromomethanedisulfonate]
Percentage of cancers showing negative growth cancers tested (human cancer cells; 10^−4 M conc.): 10^−4 M conc. = 1/3 = 33%
% Growth (NCI-H226; NCI-H226, 10^−4 molar): 7%
% Growth (NCI-H226; NCI-H226, 10^−5 molar): 16%
% Growth (NCI-H226; NCI-H226, 10^−6 molar): 20%
% Growth (NCI-H226; NCI-H226, 10^−7 molar): 21%
% Growth (NCI-H226; NCI-H226, 10^−8 molar): 43%
% Growth (EKVX; 10^−4 molar): 51%
% Growth (EKVX; 10^−5 molar): 56%
% Growth (EKVX; 10^−6 molar): 59%
% Growth (EKVX; 10^−7 molar): 60%
% Growth (EKVX; 10^−8 molar): 65%
% Growth (HOP-18; HOP-18, 10^−4 molar): −61%
% Growth (HOP-18; HOP-18, 10^−5 molar): 68%
% Growth (HOP-18; HOP-18, 10^−6 molar): 49%
% Growth (HOP-18; HOP-18, 10^−7 molar): 63%
% Growth (HOP-18; HOP-18, 10^−8 molar): 63%
melting point: 128 to 134 °C

O=S1(=O)OCCOS(=O)(=O)C1I [NSC 648309, ethylene iodomethanedisulfonate]
Percentage of cancers showing negative growth cancers tested (human cancer cells; 10^−4 M conc.): 10^−4 M conc. = 0/2 = 0%
percent of growth of human tumor cells (NCI-H226; NCI-H226 (Non-Small Cell Lung), 10^−4 molar): 20%
percent of growth of human tumor cells (UACC-62): 17%
melting point: 144 to 160 °C

O=S1(=O)OCCOS(=O)(=O)C1F [NSC 665942, ethylene fluoromethanedisulfonate]
Percentage of cancers showing negative growth cancers tested (human cancer cells; 10^−4 M conc.): 10^−4 M conc. = 0/1 = 0%
percent of growth of human tumor cells (SF-539; SF-539 (CNS Cancer), 10^−4 molar): 28%
melting point: 84 to 86 °C

CC=CC(=O)C1(C2=C(Cl)C(=O)c3ccccc3C2=O)S(=O)(=O)OCCOS1(=O)=O [NSC 731264, ethylene crotonoyl-[3-chloro-1,4-naptho-2-quinolyl]-1,1-methanedisulfonate]
Percentage of cancers showing negative growth cancers tested (human cancer cells; 10^−4 M conc.): 65%
Percentage of cancers showing negative growth cancers tested (human cancer cells; 10^−5 M conc.): 50%
Percentage of cancers showing negative growth cancers tested (human cancer cells; 10^−6 M conc.): 25%
percent of growth of human tumor cells (RPMI-8226): −18%
percent of growth of human tumor cells (HOP-62): −56%
percent of growth of human tumor cells (SK-MEL-28): −59%
percent of growth of human tumor cells (HCT-15): −59%
% Growth (OVCAR-5; OVCAR-5, 10^−4 molar): −49%
% Growth (OVCAR-5; OVCAR-5, 10^−5 molar): 51%
% Growth (OVCAR-5; OVCAR-5, 10^−6 molar): 39%
% Growth (OVCAR-5; OVCAR-5, 10^−7 molar): 46%
% Growth (OVCAR-5; OVCAR-5, 10^−8 molar): 52%
percent of growth of human tumor cells (COLO205): 30%
% Growth (SF-539; SF-539, 10^−4 molar): −73%
% Growth (SK-MEL-2; SK-MEL-2, 10^−4 molar): 27%
% Growth (SK-MEL-2; SK-MEL-2, 10^−5 molar): 49%
percent of growth of human tumor cells (HCT-116): 26%
percent of growth of human tumor cells (SF-295): −57%
percent of growth of human tumor cells (SNB-75): −33%
% Growth (MDA-MB-435): −73%
percent of growth of human tumor cells (OVCAR-4): 19%
% Growth (NCI-H23): −72%
percent of growth of human tumor cells (AS49/ATCC): −36%
% Growth (ACHN): −82%
% Growth (DU-145; DV-145, 10^−4 molar): −68%
% Growth (DU-145; DV-145, 10^−5 molar): −96%
% Growth (DU-145; DV-145, 10^−6 molar): 38%
percent of growth of human tumor cells (UACC-62): −16%
percent of growth of human tumor cells (UO-31): 12%
percent of growth of human tumor cells (MCF7/ADR-RES): 20%
percent of growth of human tumor cells (M14): −6%
% Growth (SK-MEL-5; SK-MEL-5, 10^−4 molar): −53%
% Growth (SK-MEL-5; SK-MEL-5, 10^−5 molar): 28%
percent of growth of human tumor cells (NCI-H460): 10%
percent of growth of human tumor cells (SF-268): 7%
percent of growth of human tumor cells (RXF-393): −50%
percent of growth of human tumor cells (OVCAR-3): 5%
percent of growth of human tumor cells (U-251): −5%
% Growth (KM12; KM12, 10^−4 molar): −68%
% Growth (KM12; KM12, 10^−5 molar): −75%
% Growth (KM12; KM12, 10^−6 molar): 66%
percent of growth of human tumor cells (K562): 19%
percent of growth of human tumor cells (SR): 7%
percent of growth of human tumor cells (HL-60 (TB)): 17%
% Growth (SN12C; 10^−4 molar): −67%
% Growth (SN12C; 10^−5 molar): −99%
% Growth (SN12C; 10^−6 molar): −4%
percent of growth of human tumor cells (BT-549): −52%
percent of growth of human tumor cells (HS 578T): −12%
